These are literature values, as cited in patent US6355226B1, “Topical treatment of skin disease and eye afflictions” (Advanced Viral Research Corp., priority 1997, dated 2002).

In data set [1] the test system is herpes simplex 1 and 2 (HSV 1 and 2).
Another data set relates to genital herpes infection. Particulars: topically administered ointment.

As to `Nc1nc2c(ncn2COCCO)c(=O)[nH]1` [acyclovir], the “effectiveness against HSV 1 and 2” value in data set [1] is given as “specifically effective”. Moreover, the effectiveness against cytomegalovirus entry with cytomegalovirus (CM) is recorded as “not against cytomegalovirus”. In the data set with genital herpes infection, the “effect on recurrent genital herpes disease” value was “little if any, effect” and the “effectiveness in primary first occurrence of genital herpes infection” value was “seems to be effective”.
